{
  "source": "paper PMC2916031",
  "about": "(Journal of molecular biology, 2010)",
  "key": {"full-length TbMEAT1": {"target": "full-length TbMEAT1 (Trypanosoma brucei, UniProt C7AJA4)", "sequence (C7AJA4 whole entry)": "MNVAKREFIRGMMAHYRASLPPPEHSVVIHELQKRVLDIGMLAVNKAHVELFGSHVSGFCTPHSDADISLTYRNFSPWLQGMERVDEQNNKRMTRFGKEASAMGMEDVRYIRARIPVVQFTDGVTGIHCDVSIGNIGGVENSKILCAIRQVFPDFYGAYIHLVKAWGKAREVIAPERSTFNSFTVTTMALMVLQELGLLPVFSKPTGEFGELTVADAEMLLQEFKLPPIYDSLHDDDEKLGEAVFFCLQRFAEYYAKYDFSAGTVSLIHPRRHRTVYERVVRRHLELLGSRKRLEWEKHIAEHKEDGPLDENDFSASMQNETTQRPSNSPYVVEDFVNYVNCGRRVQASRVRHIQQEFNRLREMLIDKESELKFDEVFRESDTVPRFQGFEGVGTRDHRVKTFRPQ", "assay": "U-addition to […]'-labelled RNA, denaturing gel", "type": "biochemical", "details": "100 µM UTP, 300 nM enzyme, 1 µM RNA, Mg acetate, pH 8.0, 27 °C"}, "[1]": {"target": "C-terminally truncated MEAT1 (Trypanosoma brucei, UniProt C7AJA4)", "sequence (C7AJA4 1-381)": "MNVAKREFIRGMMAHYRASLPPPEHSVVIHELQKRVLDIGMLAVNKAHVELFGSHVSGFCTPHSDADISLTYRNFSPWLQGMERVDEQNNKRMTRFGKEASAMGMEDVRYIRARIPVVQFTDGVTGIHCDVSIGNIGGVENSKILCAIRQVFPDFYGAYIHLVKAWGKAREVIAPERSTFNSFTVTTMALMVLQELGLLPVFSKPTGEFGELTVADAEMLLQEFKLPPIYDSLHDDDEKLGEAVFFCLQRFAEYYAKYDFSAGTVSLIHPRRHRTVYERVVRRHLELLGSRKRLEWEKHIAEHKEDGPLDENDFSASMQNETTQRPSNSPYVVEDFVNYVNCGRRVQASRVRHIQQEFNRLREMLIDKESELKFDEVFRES", "assay": "U-addition to […]'-labelled RNA, denaturing gel", "type": "biochemical", "details": "100 µM UTP, 300 nM enzyme, 1 µM RNA, Mg acetate, pH 8.0, 27 °C"}},
  "data": [
    {"smiles": "O=c1ccn([C@@H]2O[C@H](COP(=O)(O)OP(=O)(O)OP(=O)(O)O)[C@@H](O)[C@H]2O)c(=O)[nH]1", "note": "[UTP]", "values": [
      {"measurement": "U-addition to 5'-labelled RNA, denaturing gel", "setting": "full-length TbMEAT1", "value": "U-addition patterns for full-length TbMEAT1"},
      {"measurement": "U-addition to 5'-labelled RNA, denaturing gel", "setting": "[1]", "value": "neither limited proteolysis nor genetically-engineered C-terminal deletion had any discernable effects on enzymatic activity"}
    ]}
  ]
}
